In ChEMBL document CHEMBL1201862, “PubChem BioAssay data set” (2004):
Calls of active or inactive are those of the source.

Experiments:
[1] = biological target: Voltage-dependent T-type calcium channel subunit alpha-1H (Homo sapiens, UniProt O95180); assay type: functional;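 further: channel activity triggered by adding a high calcium stimulation buffer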
Prothrombin = Prothrombin (Homo sapiens, UniProt P00734); assay: Thrombin 1536 HTS Dose Response Confirmation. [Related pubchem assays: 1046 (Thrombin 1536 HTS; hits were confirmed in this assay)]; assay type: functional
[2] = biological target: T1, Ubiquitin-conjugating enzyme E2 N (Homo sapiens, UniProt P61088); assay type: functional
T1 sequence (P61088 whole entry): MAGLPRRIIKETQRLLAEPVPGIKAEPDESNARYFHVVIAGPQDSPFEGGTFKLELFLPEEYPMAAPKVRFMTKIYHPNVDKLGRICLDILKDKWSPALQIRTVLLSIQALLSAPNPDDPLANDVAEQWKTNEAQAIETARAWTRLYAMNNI

Bcl-2-related protein A1 = biological target: T2, Bcl-2-related protein A1 (Mus musculus, UniProt Q07440); assay type: functional;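 further: confirmatory dose–response counterscreen on Bfl-1, used to check hits from a UBC13 polyubiquitin inhibitor campaign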
T2 sequence (Q07440 whole entry): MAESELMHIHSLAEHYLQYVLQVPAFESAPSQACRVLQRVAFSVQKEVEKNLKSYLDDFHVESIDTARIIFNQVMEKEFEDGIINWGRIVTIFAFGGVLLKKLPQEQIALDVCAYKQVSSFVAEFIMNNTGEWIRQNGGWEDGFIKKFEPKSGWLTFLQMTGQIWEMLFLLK

[3] = biological target: T1, Ubiquitin-conjugating enzyme E2 N; assay type: functional; remark: listed apart in the source
[4] = viability of PTEN-deleted HCT116 cells – cell-based, HCT116 PTEN knockout, dose response (AID 1047); assay type: functional;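 further: HCT116 colon tumor cells with PTEN knocked out; cells exposed to compound for 60 hours before readout; potency for loss of cell viability measured by luminescence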
[5] = viability loss in THP-1 monocytes – THP-1 cells, cytotoxicity control for Vif-APOBEC3G degradation inhibitor project, dose response (AID 1117359); assay type: functional; settings: THP-1
[6] = viability of HCT116 lacking mutant beta-catenin – cell-based, human colon tumor, dose response (AID 1045); assay type: functional;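 further: HCT116 colon tumor cells with beta catenin knocked out; cells exposed to compound for 60 hours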
Cytochrome P450 1A2 = biological target: T3, Cytochrome P450 1A2 (Homo sapiens, UniProt P05177);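 further: PubChem cytochrome P450 panel assay, CYP1A2 panel member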
T3 sequence (P05177 whole entry): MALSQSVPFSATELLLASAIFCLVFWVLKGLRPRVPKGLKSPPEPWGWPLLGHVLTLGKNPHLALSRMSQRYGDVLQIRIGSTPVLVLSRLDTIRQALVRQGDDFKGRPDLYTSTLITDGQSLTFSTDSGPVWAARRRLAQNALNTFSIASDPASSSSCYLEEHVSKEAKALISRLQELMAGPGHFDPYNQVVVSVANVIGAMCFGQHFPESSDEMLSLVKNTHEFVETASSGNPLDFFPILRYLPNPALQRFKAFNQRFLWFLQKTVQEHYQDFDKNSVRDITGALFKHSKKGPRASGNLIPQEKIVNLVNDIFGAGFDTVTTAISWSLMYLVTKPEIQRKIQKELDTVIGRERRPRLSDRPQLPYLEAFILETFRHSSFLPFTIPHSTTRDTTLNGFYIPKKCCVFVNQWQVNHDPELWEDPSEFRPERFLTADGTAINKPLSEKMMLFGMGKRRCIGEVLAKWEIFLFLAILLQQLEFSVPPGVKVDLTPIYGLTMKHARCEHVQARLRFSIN

Protein RecA = biological target: T4, Protein RecA (Mycobacterium tuberculosis, UniProt P9WHJ3); assay: Fluorescence Cell-Free Homogeneous Dose Retest to Identify Inhibitors of RecA-Intein Splicing Activity. [Related pubchem assays (depositor defined):AID2097, AID2223, AID489010, AID492950]; assay type: functional
T4 sequence (P9WHJ3 whole entry): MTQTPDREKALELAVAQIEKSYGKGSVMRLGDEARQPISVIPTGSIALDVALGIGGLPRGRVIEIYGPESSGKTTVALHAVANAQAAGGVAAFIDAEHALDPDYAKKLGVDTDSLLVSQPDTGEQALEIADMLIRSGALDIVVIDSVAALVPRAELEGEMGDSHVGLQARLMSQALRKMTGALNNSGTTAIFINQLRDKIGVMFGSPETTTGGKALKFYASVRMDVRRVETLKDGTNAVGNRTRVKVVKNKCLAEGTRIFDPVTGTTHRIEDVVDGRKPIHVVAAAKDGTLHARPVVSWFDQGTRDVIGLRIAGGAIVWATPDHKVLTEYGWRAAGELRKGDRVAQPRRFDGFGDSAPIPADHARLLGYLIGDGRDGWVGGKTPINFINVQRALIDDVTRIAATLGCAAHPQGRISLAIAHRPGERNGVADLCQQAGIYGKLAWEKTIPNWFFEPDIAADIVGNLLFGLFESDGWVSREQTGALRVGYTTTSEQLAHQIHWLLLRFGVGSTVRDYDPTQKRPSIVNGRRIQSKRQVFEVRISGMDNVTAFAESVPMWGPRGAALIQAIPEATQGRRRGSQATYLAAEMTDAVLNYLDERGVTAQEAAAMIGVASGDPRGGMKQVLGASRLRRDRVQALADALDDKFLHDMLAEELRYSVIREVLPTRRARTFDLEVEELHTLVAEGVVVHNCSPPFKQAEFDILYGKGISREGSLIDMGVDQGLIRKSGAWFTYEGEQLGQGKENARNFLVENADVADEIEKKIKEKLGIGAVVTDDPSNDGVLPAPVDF

[7] = Luminescence Cell-Based Dose Retest to Confirm Inhibitors of Cancer Stem Cells. [Related pubchem assays (depositor defined):AID2717, AID2721]; assay type: functional; settings: Homo sapiens
[8] = biological target: T5, Replicative DNA helicase DnaB (Mycobacterium tuberculosis, UniProt P9WMR3); assay: DnaB intein splicing inhibitors, dose response, biochemical, cell-free fluorescence (AID 449749); assay type: functional
T5 sequence (P9WMR3 whole entry): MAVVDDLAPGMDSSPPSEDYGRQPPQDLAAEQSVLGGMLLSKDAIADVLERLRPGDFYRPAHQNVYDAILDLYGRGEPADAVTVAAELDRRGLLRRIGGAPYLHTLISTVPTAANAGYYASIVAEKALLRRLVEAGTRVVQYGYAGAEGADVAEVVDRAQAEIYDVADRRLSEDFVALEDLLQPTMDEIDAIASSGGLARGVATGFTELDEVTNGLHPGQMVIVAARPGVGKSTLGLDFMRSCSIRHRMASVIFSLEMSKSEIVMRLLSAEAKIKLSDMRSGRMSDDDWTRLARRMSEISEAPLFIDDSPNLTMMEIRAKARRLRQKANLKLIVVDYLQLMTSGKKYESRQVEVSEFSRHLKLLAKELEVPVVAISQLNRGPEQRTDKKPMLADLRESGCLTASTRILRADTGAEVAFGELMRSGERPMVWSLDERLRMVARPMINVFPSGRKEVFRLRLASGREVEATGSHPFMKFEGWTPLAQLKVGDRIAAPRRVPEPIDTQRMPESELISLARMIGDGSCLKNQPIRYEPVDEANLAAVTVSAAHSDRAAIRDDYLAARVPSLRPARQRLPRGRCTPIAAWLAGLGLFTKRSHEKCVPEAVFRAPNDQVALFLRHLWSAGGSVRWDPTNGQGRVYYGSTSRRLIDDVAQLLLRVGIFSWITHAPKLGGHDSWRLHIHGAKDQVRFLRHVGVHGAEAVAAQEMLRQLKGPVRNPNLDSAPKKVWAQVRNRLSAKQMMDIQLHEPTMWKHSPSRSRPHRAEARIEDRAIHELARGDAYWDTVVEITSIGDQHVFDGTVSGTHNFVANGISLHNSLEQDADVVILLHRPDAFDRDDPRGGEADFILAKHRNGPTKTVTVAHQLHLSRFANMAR

Cytochrome P450 2D6 = Cytochrome P450 2D6 (Homo sapiens, UniProt P10635);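 further: CYP2D6 member of a cytochrome P450 panel assay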
Chain of Cytochrome P450 2D6 (P10635 whole entry): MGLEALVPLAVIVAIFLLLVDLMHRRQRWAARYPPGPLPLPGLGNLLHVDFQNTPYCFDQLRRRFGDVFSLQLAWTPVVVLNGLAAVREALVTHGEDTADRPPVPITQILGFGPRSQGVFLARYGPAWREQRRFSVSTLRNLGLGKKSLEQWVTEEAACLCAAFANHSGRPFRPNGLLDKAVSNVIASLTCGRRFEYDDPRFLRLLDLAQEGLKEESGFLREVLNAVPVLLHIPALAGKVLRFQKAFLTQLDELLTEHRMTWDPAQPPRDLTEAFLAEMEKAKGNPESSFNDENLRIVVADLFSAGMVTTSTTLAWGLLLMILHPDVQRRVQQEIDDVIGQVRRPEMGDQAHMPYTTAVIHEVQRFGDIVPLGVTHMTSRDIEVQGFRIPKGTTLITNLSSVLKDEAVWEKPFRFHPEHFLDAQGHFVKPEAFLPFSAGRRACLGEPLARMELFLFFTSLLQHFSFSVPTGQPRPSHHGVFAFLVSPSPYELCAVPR

[9] = HEK-293T viability loss after treatment – luminescence, T-cell screen hits, cytotoxicity control for TCR NF-kB inhibitor project, dose response (AID 489026); assay type: functional, cell-based;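 further: cells exposed to compound about 14 hours before the viability readout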
cells = assay type: functional, cell-based; settings: HEK-CNG
Galanin receptor type 3 = biological target: T6, Galanin receptor type 3 (Homo sapiens, UniProt O60755); assay: Fluorescence-based cell-based primary high throughput dose response assay to identify antagonists of the Galanin Receptor 3 (GalR3).; assay type: functional
T6 sequence (O60755 whole entry): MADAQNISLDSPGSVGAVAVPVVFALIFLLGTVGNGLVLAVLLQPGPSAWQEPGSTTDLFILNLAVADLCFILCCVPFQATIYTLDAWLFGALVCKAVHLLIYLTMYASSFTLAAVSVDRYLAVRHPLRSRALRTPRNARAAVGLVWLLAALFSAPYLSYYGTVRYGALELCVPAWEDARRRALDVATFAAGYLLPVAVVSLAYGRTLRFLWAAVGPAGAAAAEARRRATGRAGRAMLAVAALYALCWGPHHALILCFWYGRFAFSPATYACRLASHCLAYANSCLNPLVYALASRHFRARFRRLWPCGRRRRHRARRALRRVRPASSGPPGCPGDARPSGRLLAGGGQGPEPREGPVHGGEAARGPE

[10] = NIH3T3 cell viability loss – ATP luminescence, mouse fibroblasts, counter-screen, dose response (AID 2010); assay type: functional, cell-based;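 further: cells exposed to compound for about 90 hours before reading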
[11] = Trypanosoma cruzi growth suppression in host cells – NIH3T3 host cells, beta-gal luminescence, confirmation (AID 2044); assay type: functional, cell-based;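 further: intracellular parasites grown in NIH/3T3 mouse fibroblasts as host cells; luminescent beta-galactosidase reporter signal from transgenic T. cruzi replicating inside host cells; inhibitors lower the luminescence signal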
INS1 = assay: INS-1E survival protection against cytokine death – cell-based, luminescence, retest, dose response (AID 449756); assay type: functional; settings: Rattus norvegicus;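 further: cell death triggered by IL-1 beta plus TNF-alpha plus IFN-gamma mixture; protective hits raise ATP signal compared with cytokine alone wells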
[12] = system: Streptococcus sp. 'group A'; assay: Streptococcus pyogenes SK(-)GAS viability under kanamycin – luminescence, BacTiterGlo, confirmation, counter-screen for streptokinase expression inhibitor project, dose response (AID 1900); assay type: functional, organism-based
Streptococcus = assay: GAS UMAA2166 growth inhibition – luminescence, BacTiterGlo, counter-screen for streptokinase expression inhibitor project, dose response (AID 1915); assay type: functional, organism-based;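 further: potency for reduction of bacterial viability or growth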

Chain of Voltage-dependent T-type calcium channel subunit alpha-1H (O95180 whole entry): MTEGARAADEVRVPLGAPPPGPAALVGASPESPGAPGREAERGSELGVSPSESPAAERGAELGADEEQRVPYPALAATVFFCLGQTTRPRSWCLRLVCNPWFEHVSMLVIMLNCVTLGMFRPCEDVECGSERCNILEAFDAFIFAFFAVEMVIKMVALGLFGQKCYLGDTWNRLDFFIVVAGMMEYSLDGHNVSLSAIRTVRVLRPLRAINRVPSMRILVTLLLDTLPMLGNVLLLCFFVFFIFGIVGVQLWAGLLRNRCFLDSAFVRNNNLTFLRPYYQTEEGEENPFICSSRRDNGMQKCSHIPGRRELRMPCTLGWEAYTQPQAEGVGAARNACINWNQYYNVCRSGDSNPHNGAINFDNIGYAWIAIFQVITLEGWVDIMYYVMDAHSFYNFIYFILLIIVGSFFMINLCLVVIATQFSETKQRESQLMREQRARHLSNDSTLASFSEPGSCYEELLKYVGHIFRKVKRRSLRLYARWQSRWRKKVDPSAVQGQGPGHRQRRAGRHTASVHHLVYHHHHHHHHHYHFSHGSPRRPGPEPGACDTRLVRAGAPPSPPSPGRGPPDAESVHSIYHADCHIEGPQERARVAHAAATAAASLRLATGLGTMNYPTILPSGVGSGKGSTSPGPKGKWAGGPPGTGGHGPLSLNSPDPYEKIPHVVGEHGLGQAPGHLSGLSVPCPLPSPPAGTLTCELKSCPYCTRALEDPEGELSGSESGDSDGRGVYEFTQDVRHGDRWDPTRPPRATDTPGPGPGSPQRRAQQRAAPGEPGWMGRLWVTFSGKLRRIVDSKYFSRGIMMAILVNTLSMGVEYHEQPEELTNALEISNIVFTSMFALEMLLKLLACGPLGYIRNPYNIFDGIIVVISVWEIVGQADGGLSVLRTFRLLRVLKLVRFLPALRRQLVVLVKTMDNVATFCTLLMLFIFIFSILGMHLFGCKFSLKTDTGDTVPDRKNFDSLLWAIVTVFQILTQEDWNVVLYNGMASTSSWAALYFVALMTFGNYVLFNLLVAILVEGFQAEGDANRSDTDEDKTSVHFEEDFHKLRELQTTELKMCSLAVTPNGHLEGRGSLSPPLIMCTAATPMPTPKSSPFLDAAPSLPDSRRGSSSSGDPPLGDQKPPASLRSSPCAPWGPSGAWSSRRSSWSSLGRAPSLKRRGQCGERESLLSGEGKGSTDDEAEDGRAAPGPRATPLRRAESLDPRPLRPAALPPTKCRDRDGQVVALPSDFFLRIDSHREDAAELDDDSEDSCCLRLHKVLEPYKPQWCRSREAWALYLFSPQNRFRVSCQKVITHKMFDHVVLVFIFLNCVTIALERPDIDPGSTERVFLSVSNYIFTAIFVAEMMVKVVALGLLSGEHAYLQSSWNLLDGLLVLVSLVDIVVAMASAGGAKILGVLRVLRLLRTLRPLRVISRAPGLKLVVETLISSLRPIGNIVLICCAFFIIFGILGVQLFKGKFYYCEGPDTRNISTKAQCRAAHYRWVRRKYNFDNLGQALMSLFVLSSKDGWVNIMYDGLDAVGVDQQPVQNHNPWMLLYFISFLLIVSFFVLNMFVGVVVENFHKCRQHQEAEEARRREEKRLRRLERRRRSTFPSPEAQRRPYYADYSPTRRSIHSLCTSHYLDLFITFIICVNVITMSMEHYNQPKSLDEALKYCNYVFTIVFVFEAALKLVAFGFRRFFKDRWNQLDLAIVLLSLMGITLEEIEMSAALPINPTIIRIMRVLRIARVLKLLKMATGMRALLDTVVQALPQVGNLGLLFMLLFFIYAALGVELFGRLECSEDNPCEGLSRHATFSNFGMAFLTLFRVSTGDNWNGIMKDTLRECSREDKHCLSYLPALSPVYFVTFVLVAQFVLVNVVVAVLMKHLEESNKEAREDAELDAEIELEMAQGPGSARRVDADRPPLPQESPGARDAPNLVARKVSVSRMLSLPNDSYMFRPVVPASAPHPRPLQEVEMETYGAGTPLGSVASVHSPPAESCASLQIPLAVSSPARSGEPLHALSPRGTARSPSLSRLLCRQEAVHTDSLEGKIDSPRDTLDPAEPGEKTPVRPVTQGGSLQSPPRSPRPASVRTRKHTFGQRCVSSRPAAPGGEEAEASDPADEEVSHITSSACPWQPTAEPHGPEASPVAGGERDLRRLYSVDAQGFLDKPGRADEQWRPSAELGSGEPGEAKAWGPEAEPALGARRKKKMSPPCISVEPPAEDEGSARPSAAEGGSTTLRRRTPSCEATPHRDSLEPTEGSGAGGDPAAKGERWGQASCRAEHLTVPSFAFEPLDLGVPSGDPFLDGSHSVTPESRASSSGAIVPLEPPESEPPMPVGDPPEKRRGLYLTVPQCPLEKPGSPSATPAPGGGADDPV

Cc1ccccc1NC(=O)c1ccc(CN2CCC(Cc3ccccc3)CC2)cc1
EC50 [1]: 0.134 µM (active)

O=C(O)C1CCN(c2ccc(Cl)nn2)CC1
IC50 (Prothrombin): > 50 µM (not active)

CN(CCNC(=O)C1CCN(c2ncnc3c2nc2n3CCCCC2)CC1)Cc1ccccc1
IC50 [2]: 3.44 µM (active) | IC50 (Bcl-2-related protein A1): > 20 µM (inactive) | IC50 [3]: 2.98 µM (active)

COc1ccccc1NC(=O)CSc1nnc(-c2ccoc2C)n1CCc1ccccc1
IC50 [2]: 9.91 µM (active) | IC50 (Bcl-2-related protein A1): > 20 µM (inactive) | IC50 [3]: 8.82 µM (active)

CCOC(=O)C(C)Sc1cc(CS(=O)(=O)c2ccccc2)nc(-c2ccccc2)n1 (stereo not given)
EC50 [1]: 8.17 µM (active)

COc1ccc(-c2nc(C#N)c(NCc3ccccc3Cl)o2)cc1OC
EC50 [4]: 25.1 µM (active) | CC50 [5]: > 40 µM (active) | EC50 [6]: 29.1 µM (active)

Nc1nc2ccccc2n1C(=O)c1ccco1
IC50 (Prothrombin): > 50 µM (not active)

O=C(Nc1nc(-c2cccs2)cs1)c1ccc(S(=O)(=O)N2CCCCC2)cc1
EC50 [1]: 3.4 µM (active)

CCCOc1ccc(C(=O)Nn2c(C)nc3ccccc3c2=O)cc1
IC50 [2]: 1.54 µM (active) | IC50 (Bcl-2-related protein A1): > 20 µM (inactive) | IC50 [3]: 1.32 µM (active)

COC(=O)c1ccc(C(=O)NC(=S)Nc2ccc3nc(SC)sc3c2)cc1
EC50 [4]: 5.26 µM (active) | EC50 [6]: 5.03 µM (active)

O=C(Nc1ccc(F)cc1F)c1ccc(-n2cncn2)nc1
IC50 (Prothrombin): > 50 µM (not active)

CC(=O)Oc1ccc2ccccc2c1C(NC(=O)Cc1ccccc1)c1ccc(Cl)cc1 (stereo not given)
EC50 [4]: 18.6 µM (active) | AC50 (Cytochrome P450 1A2): 6.31 µM (inconclusive) | EC50 (Protein RecA): 31.6 µM (active) | AC50 [7]: 3.12 µM (active) | AC50 [8]: 3.27 µM (active) | AC50 (Cytochrome P450 2D6): 11.2 µM (inconclusive) | EC50 [6]: 21.1 µM (active)

Cc1ccc2[nH]c(SCCCCOc3ccccc3)nc2c1
EC50 [1]: 2.25 µM (active)

CCOC(=O)c1c(NC(=O)COc2ccccc2C#N)sc2c1CC(C)(C)NC2(C)C
IC50 [2]: 5.94 µM (active) | IC50 (Bcl-2-related protein A1): > 20 µM (inactive) | IC50 [3]: 4.91 µM (active)

COc1ccccc1NC(=O)c1sc2ncn(Cc3ccc(C)cc3)c(=O)c2c1C
IC50 (Prothrombin): > 50 µM (not active)

Cn1c(CNc2cccc(Cl)c2)nnc1SCC(=O)OC1CCCCC1
EC50 [1]: 2.53 µM (active)

Cc1ccc(Oc2nnc(-c3ccccc3)c3ccccc23)cc1
EC50 [4]: 75.7 µM (active) | EC50 [6]: 75.9 µM (active)

CC(C)(C)c1ccc(C(=O)Nc2ccc(Oc3cccnc3)nc2)cc1
IC50 [9]: 50.1 µM (inactive) | EC50 (cells): > 29.9 µM (inactive) | IC50 (Galanin receptor type 3): 1.33 µM (active)

COc1ccc(-c2ccc(CCC(=O)O)n2-c2ccccc2O)cc1
IC50 (Prothrombin): 10.5 µM (active)

CC(C)N=C(S)N=Nc1c(O)[nH]c2ccc(C(C)C)cc12
IC50 [2]: 19.2 µM (active) | EC50 [10]: 11 µM (active) | IC50 (Bcl-2-related protein A1): > 20 µM (inactive) | EC50 [11]: 2.06 µM (active) | IC50 [3]: 3.56 µM (active)

Clc1ccc2c(N/N=C/c3cccc(Br)c3)ccnc2c1
AC50 (INS1): 7.17 µM (active) | EC50 [4]: 4.59 µM (active) | EC50 [12]: 3.24 µM (active) | AC50 [7]: 5.63 µM (active) | EC50 (Streptococcus): 4.4 µM (active) | EC50 [6]: 4.89 µM (active)
